Reference: PMC8316502 (Nature Communications, 2021)
Where two headings read alike, the source gives them in different places.

What was measured:
[1] = molecular target: S. stellulata AepX; test: Microscale thermophoresis ligand binding of recombinant S. stellulata AepX; set-up: species or system Stappia stellulata; conditions: for Kd: read-out: Kd (μM) AepX Ss
Method: Finally, we determined the substrate specificity of recombinant S. stellulata AepX towards 2AEP and other (alkyl)phosphonates using microscale thermophoresis[53],[54].
Recombinant AepX was over-produced and purified to homogeneity using methods described in[53]. Binding affinity was determined by microscale thermophoresis using a Monolith NT.115 instrument (NanoTemper Technologies GmbT, Germany) following the protocols described in[53],[54]. A detailed protocol is outlined in the Supplementary Materials. […]
pET21a::aepXSs was sequence verified by automated DNA sequencing (Eurofins, Germany) and introduced to E. coli BL21(DE3) for over-production of recombinant AepX with a C-terminal […]
E. coli BL21(DE3) harbouring pET21a::aepXSs was grown in LB broth with 100 µg mL-1 ampicillin in a culture volume of 1 L contained within a 2 L baffled flask. […]
The binding affinity of AepX for phosphonate ligands was determined using Microscale Thermophoresis (MST) with a Monolith NT.115 instrument (NanoTemper Technologies, Germany).
AepX (100 nM) was labelled with 2nd Generation RED-tris-NTA dye (Nanotemper Technologies, Germany) in 20 mM HEPES pH 7.5 with 200 mM NaCl and 0.005% (v/v) Tween-20 (MST buffer) according to the manufacturer’s instructions. […] 4 µL of each protein-ligand mixture was loaded into Monolith NT.115 Premium Capillaries (Nanotemper Technologies, Germany) and thermophoresis was measured at 22 °C for 22 s with 60 % LED power and High MST power. Data from at least two independent titrations were combined and analysed using the MO.Affinity Analysis software version 2.3 (Nanotemper Technologies, Germany), using the early thermophoresis data at 1 – 2.5 seconds in the experiment for analysis. […]
Figure S7. Binding affinities for selected phosphonates by the Stappia stellulata AepX substrate binding protein determined by microscale thermophoresis. […]

[2] = system: Alliiroseovarius crassostreae (DSM 16950); test: Final growth yield on sole N or P source, DSM 16950; format: cell-based
Method: (§1) All strains used in this work were axenic. Pseudomonas strains were maintained on Luria Bertani (LB) agar (1.5% w/v) medium at 30 °C. Stappia stellulata and the Roseobacter strains were maintained on Marine Broth agar (1.5% w/v) medium at 30 °C. […] For all growth and proteomics experiments cultures were grown in an adapted minimal A medium[44] using Na-Succinate (20 mM) as the sole carbon source and, where applicable, 10 mM NH4Cl was added as the sole N source. 2AEP and KH2PO4 were added to a final concentration of 100 µM or 1.5 mM as specified in the text and figure legends. Pseudomonas strains were pre-cultured in minimal medium A containing 100 µM Pi and 1.5 mM NH4Cl to ensure adequate growth while minimising the potential for carryover of residual nutrients into experimental cultures. Culture experiments were performed using a FLUOStar Omega 96-well plate reader using Sarstedt 96-well plates incubated at 30°C, shaking at 200 rpm. […] For all other growth and proteomics experiments these marine bacteria were grown in Sea Salts media, with Pi buffer replaced by HEPES buffer. The method used for quantifying extracellular Pi is detailed in the Supplementary Materials.
(§2) Table S1 Final growth yields (mean OD540 ± standard deviation) of Stappia stellulata (DSM 5886), Alliiroseovarius crassostreae (DSM 16950), Alliiroseovarius sediminilitoris (DSM 29439), Thalassobius aestuarii (DSM 15283), and Shimia marina (DSM26895) on 2AEP as sole N or P source with corresponding negative and positive controls. All conditions were performed in triplicate.

[3] = system: Alliiroseovarius sediminilitoris (DSM 29439); test: Final growth yield on sole N or P source, DSM 29439; format: cell-based
Method: as §1, §2

[4] = system: Shimia marina (DSM26895); test: Final growth yield on sole N or P source, DSM 26895; format: cell-based
Method: as §1, §2

[5] = system: Thalassobius aestuarii (DSM 15283); test: Final growth yield on sole N or P source, DSM 15283; format: cell-based
Method: as §1, §2

[6] = system: Stappia stellulata (DSM 5886); test: Final growth yield on sole N or P source, DSM 5886; format: cell-based
Method: as §1, §2

[7] = system: Pseudomonas putida BIRD-1; test: Growth of P. putida BIRD-1 on 2AEP; format: cell-based
Method: All strains used in this work were axenic. Pseudomonas strains were maintained on Luria Bertani (LB) agar (1.5% w/v) medium at 30 °C. […] For all growth and proteomics experiments cultures were grown in an adapted minimal A medium[44] using Na-Succinate (20 mM) as the sole carbon source and, where applicable, 10 mM NH4Cl was added as the sole N source. 2AEP and KH2PO4 were added to a final concentration of 100 µM or 1.5 mM as specified in the text and figure legends. Pseudomonas strains were pre-cultured in minimal medium A containing 100 µM Pi and 1.5 mM NH4Cl to ensure adequate growth while minimising the potential for carryover of residual nutrients into experimental cultures. Culture experiments were performed using a FLUOStar Omega 96-well plate reader using Sarstedt 96-well plates incubated at 30°C, shaking at 200 rpm.

[8] = system: E. coli PhnD; conditions: read-out: Kd (μM) PhnD Ec, cited from earlier work

Compound	Kd of AepX in words [1]	Kd [1]	Final growth yield (mean OD540 ± standard deviation), sole N source [2]	Final growth yield (mean OD540 ± standard deviation), sole P source [2]	Final growth yield (mean OD540 ± standard deviation), sole N source [3]	Final growth yield (mean OD540 ± standard deviation), sole P source [3]	Final growth yield (mean OD540 ± standard deviation), sole N source [4]	Final growth yield (mean OD540 ± standard deviation), sole P source [4]	Final growth yield (mean OD540 ± standard deviation), sole N source [5]	Final growth yield (mean OD540 ± standard deviation), sole P source [5]	Final growth yield (mean OD540 ± standard deviation), sole N source [6]	Final growth yield (mean OD540 ± standard deviation), sole P source [6]	Growth on 2AEP as sole P, sole N or sole N and sole P source [7]	Kd [8]	Kd ([1]; microscale thermophoresis, recombinant S. stellulata AepX, 22 °C)	Kd ([8]; E. coli PhnD, previous studies)
NCCP(=O)(O)O [2-Aminoethylphosphonate, 2-aminoethylphosphonate]	nanomolar range	0.023 ± 0.004 µM	0.535±0.039 OD540	1.050±0.018 OD540	0.239±0.008 OD540	0.748±0.019 OD540	0.347±0.004 OD540	0.827±0.013 OD540	0.487±0.020 OD540	0.869±0.094 OD540	0.816±0.080 OD540	0.980±0.005 OD540	capable of growth	0.05 to 0.1 µM		
orthophosphate [Pi]				0.90±0.018 OD540		1.100±0.037 OD540		1.045±0.020 OD540		1.003±0.030 OD540		1.01±0.07 OD540				
NCP(=O)(O)O [Aminomethylphosphonate]															4490 ± 808 µM	16.6 µM
ammonium [NH4]			0.776±0.044 OD540		0.257±0.004 OD540		0.397±0.035 OD540				0.680±0.016 OD540					
